# Experimental data from ChEMBL document CHEMBL3637782, “GSK Tres Cantos Follow-up TB Screening Data” (2016).
# Tests used:
# [1] = GSK_TB: AVG_CHROM_LOGP; type: physicochemical
# [2] = system: Mycobacterium tuberculosis H37Rv; assay: GSK_TB: Inhibition of the intracellular growth of Mycobacterium tuberculosis (pXC50); type: functional, ATCC25618
# [3] = system: HepG2; assay: GSK_TB: The cytotoxicity against HepG2 cells expressed as IC50; type: functional, cell-based; conditions: Homo sapiens
# [4] = system: Mycobacterium tuberculosis H37Rv; assay: GSK_TB: Minimum inhibitory concentration against H37Rv stain of Mycobacterium tuberculosis using MABA method; type: functional; conditions: ATCC25618
# [5] = GSK_TB: Kinetic solubility of the compound in phosphate buffered saline at pH 7.4 after 1 hr by CLND method; type: physicochemical
# [6] = GSK_TB: Lipophilicity, log D of the compound at pH 7.4 by ChromlogD analysis; type: physicochemical; conditions: buffer
structure (smiles),measurement,setting,value
CCCC/C=C/c1cc2ccncc2cc1OC1CCNCC1,Lipophilicity,[1],7.3475
same,pXC50,[2],5.9
same,IC50,[3],16 µM
same,MIC,[4],1.6 µM
same,solubility kinetic at 1 h,[5],36 µg/mL
same,Lipophilicity,[6],3.61
O=C(NCc1ccco1)N1CCN(Cc2ccc(Cl)s2)CC1,Lipophilicity,[1],4.8996
same,pXC50,[2],5.6
same,IC50,[3],> 100 µM
same,MIC,[4],2 µM
same,solubility kinetic at 1 h,[5],98 µg/mL
same,Lipophilicity,[6],4.82
NCC(c1cccs1)S(=O)(=O)c1ccccc1 (stereo not drawn),Lipophilicity,[1],2.5334
same,IC50,[3],32 µM
same,MIC,[4],2 µM
same,solubility kinetic at 1 h,[5],≥ 134 µg/mL
same,Lipophilicity,[6],2.5
NS(=O)(=O)c1ccc(Nc2cnc3ccccc3n2)cc1,Lipophilicity,[1],2.5171
same,pXC50,[2],<4.3
same,IC50,[3],> 100 µM
same,MIC,[4],2 µM
same,solubility kinetic at 1 h,[5],112 µg/mL
same,Lipophilicity,[6],1.07
CNc1snc(C)c1C(=O)NCCOc1ccc(OC)cc1,Lipophilicity,[1],4.2469
same,pXC50,[2],5.7
same,IC50,[3],> 100 µM
same,MIC,[4],2.5 µM
same,solubility kinetic at 1 h,[5],121 µg/mL
same,Lipophilicity,[6],4.24
NC(=O)c1ccc(CN(C2CC2)S(=O)(=O)c2ccccc2F)cc1,Lipophilicity,[1],3.79
same,pXC50,[2],6.7
same,IC50,[3],> 100 µM
same,MIC,[4],3.75 µM
same,solubility kinetic at 1 h,[5],133 µg/mL
same,Lipophilicity,[6],3.75
NC(=O)c1cc2ccc(CC(=O)c3cccs3)cc2s1,Lipophilicity,[1],3.7247
same,pXC50,[2],6
same,IC50,[3],> 100 µM
same,MIC,[4],3.8 µM
same,solubility kinetic at 1 h,[5],8 µg/mL
same,Lipophilicity,[6],3.62
CCOCn1ccc(NS(=O)(=O)c2ccc(N)cc2)nc1=O,Lipophilicity,[1],0.7057
same,pXC50,[2],4.9
same,IC50,[3],> 100 µM
same,MIC,[4],4.7 µM
same,solubility kinetic at 1 h,[5],52 µg/mL
same,Lipophilicity,[6],0.66
N#Cc1ncn(-c2ccc3nnc(C(F)(F)F)n3n2)n1,Lipophilicity,[1],3.3167
same,pXC50,[2],<4.3
same,IC50,[3],> 100 µM
same,MIC,[4],5 µM
same,solubility kinetic at 1 h,[5],≥ 105 µg/mL
same,Lipophilicity,[6],3.31
Cn1cc(CCNC(=O)Nc2ccc(N3CCCCC3)nc2)cn1,Lipophilicity,[1],2.974
same,pXC50,[2],4.7
same,IC50,[3],> 100 µM
same,MIC,[4],5 µM
same,Lipophilicity,[6],2.97
CC(C)N(C(=O)CNc1ccccc1Nc1ccccc1)c1ccccc1,Lipophilicity,[1],8.1308
same,pXC50,[2],5.7
same,IC50,[3],50 µM
same,MIC,[4],5.6 µM
same,solubility kinetic at 1 h,[5],8 µg/mL
same,Lipophilicity,[6],7.73
CC1CC1c1ccc(CN2CCc3nc(Nc4ccccc4)sc3CC2)o1 (stereo not drawn),Lipophilicity,[1],8.1798
same,IC50,[3],40 µM
same,MIC,[4],5.6 µM
same,solubility kinetic at 1 h,[5],54 µg/mL
same,Lipophilicity,[6],7.64
COC(=O)c1ccc(Oc2ccc(-c3csc(C)n3)cc2F)nn1,Lipophilicity,[1],4.8996
same,pXC50,[2],<4.3
same,IC50,[3],> 100 µM
same,MIC,[4],5.6 µM
same,solubility kinetic at 1 h,[5],17 µg/mL
same,Lipophilicity,[6],4.83
CC(C)c1noc(N2CCC([C@H](C)Oc3cnc(-c4ccc(S(C)(=O)=O)c(F)c4)cn3)CC2)n1,pXC50,[2],5.2
same,IC50,[3],25 µM
same,MIC,[4],6 µM
same,solubility kinetic at 1 h,[5],13 µg/mL
same,Lipophilicity,[6],6.69
N#Cc1cccc(-c2ccc(NC[C@H]3CC[C@]4(CC3)CN(c3cccnn3)C(=O)O4)nc2)c1,Lipophilicity,[1],4.9649
same,pXC50,[2],5.6
same,IC50,[3],40 µM
same,MIC,[4],10 µM
same,solubility kinetic at 1 h,[5],11 µg/mL
same,Lipophilicity,[6],4.96
Cc1ccc2c(c1)c(=O)cc(C(F)(F)F)n2CCNC(=O)c1ccccn1,Lipophilicity,[1],6.1236
same,pXC50,[2],5.6
same,IC50,[3],> 100 µM
same,MIC,[4],10 µM
same,solubility kinetic at 1 h,[5],6 µg/mL
same,Lipophilicity,[6],5.84
Fc1cccc(Oc2cc(C3CCCNC3)nc(-c3ccncc3)n2)c1 (stereo not drawn),Lipophilicity,[1],5.1281
same,IC50,[3],50 µM
same,MIC,[4],10 µM
same,solubility kinetic at 1 h,[5],64 µg/mL
same,Lipophilicity,[6],2.9
Cc1c(C(=O)NCCOc2ccccc2)[nH]c2c1C(=O)CCC2,Lipophilicity,[1],3.8226
same,pXC50,[2],5
same,IC50,[3],100 µM
same,MIC,[4],10 µM
same,solubility kinetic at 1 h,[5],46 µg/mL
same,Lipophilicity,[6],3.62
